According to the NIST ThermoML archive (doi:10.1021/je500380x):

Experiment: mn = molality of the nth substance listed, in mol/kg
Settings: 100 kPa, Liquid; for viscosity: Falling or rolling sphere viscometry; for mass density: Vibrating tube method; for electrical conductivity: Alternating current cell with electrodes

CCC(=O)OCCN1CCNCC1 [2-(piperazin-1-yl)ethyl propionate] + CO
Settings	electrical conductivity [S/m]	mass density [kg/m3]	viscosity [mPa·s]
308.15 K, m1 = 0.05	–	780.29	–
308.15 K, m1 = 0.1001	–	783.39	–
308.15 K, m1 = 0.2006	–	789.53	–
308.15 K, m1 = 0.3003	–	795.62	–
308.15 K, m1 = 0.3995	–	801.72	–
308.15 K, m1 = 0.5005	–	807.84	–
308.15 K, m1 = 0.6006	–	814.12	–
308.15 K, m1 = 0.7007	–	820.37	–
308.15 K, m1 = 0.8007	–	826.54	–
308.15 K, m1 = 0.9008	–	832.74	–
308.15 K, m1 = 1.001	–	838.83	0.949
308.15 K, m1 = 1.2	–	851.28	1.098
308.15 K, m1 = 1.401	–	864.42	1.305
308.15 K, m1 = 1.6	–	876.97	1.56
308.15 K, m1 = 1.801	–	890.31	1.895
308.15 K, m1 = 2	–	903.56	2.346
308.15 K, m1 = 2.203	–	917.48	2.912
308.15 K, m1 = 2.403	–	930.52	3.753
308.15 K, m1 = 2.603	–	943.48	4.841
308.15 K, m1 = 2.803	–	956.73	6.372
308.15 K, m1 = 3.001	–	970.42	8.863
313.15 K, m1 = 0.05	0.142	775.51	0.484
313.15 K, m1 = 0.1001	0.238	778.61	0.494
313.15 K, m1 = 0.2006	0.384	784.77	0.522
313.15 K, m1 = 0.3003	0.498	790.88	0.552
313.15 K, m1 = 0.3995	0.586	797	0.585
313.15 K, m1 = 0.5005	0.661	803.15	0.623
313.15 K, m1 = 0.6006	0.729	809.45	0.664
313.15 K, m1 = 0.7007	0.779	815.73	0.706
313.15 K, m1 = 0.8007	0.823	821.92	0.76
313.15 K, m1 = 0.9008	0.857	828.14	0.815
313.15 K, m1 = 1.001	0.898	834.22	0.878
313.15 K, m1 = 1.2	0.931	846.77	1.012
313.15 K, m1 = 1.401	0.948	859.97	1.197
313.15 K, m1 = 1.6	0.941	872.59	1.425
313.15 K, m1 = 1.801	0.918	885.98	1.723
313.15 K, m1 = 2	0.873	899.28	2.12
313.15 K, m1 = 2.203	0.82	913.27	2.614
313.15 K, m1 = 2.403	0.751	926.52	3.343
313.15 K, m1 = 2.603	0.674	939.34	4.274
313.15 K, m1 = 2.803	0.599	952.7	5.571
313.15 K, m1 = 3.001	–	966.46	7.662
313.15 K, m1 = 3.006	0.534	–	–
318.15 K, m1 = 0.05	0.145	770.7	0.459
318.15 K, m1 = 0.1001	0.243	773.8	0.468
318.15 K, m1 = 0.2006	0.395	779.98	0.493
318.15 K, m1 = 0.3003	0.511	786.11	0.521
318.15 K, m1 = 0.3995	0.604	792.25	0.55
318.15 K, m1 = 0.5005	0.685	798.42	0.584
318.15 K, m1 = 0.6006	0.754	804.74	0.622
318.15 K, m1 = 0.7007	0.806	811.06	0.66
318.15 K, m1 = 0.8007	0.855	817.27	0.708
318.15 K, m1 = 0.9008	0.891	823.51	0.759
318.15 K, m1 = 1.001	0.936	829.66	0.814
318.15 K, m1 = 1.2	0.975	842.24	0.935
318.15 K, m1 = 1.401	0.994	855.48	1.102
318.15 K, m1 = 1.6	0.995	868.17	1.306
318.15 K, m1 = 1.801	0.971	881.62	1.571
318.15 K, m1 = 2	0.932	894.99	1.922
318.15 K, m1 = 2.203	0.874	909.04	2.355
318.15 K, m1 = 2.403	0.809	922.36	2.99
318.15 K, m1 = 2.603	0.724	935.25	3.793
318.15 K, m1 = 2.803	0.656	948.64	4.897
318.15 K, m1 = 3.001	–	962.47	6.668
318.15 K, m1 = 3.006	0.583	–	–
323.15 K, m1 = 0.05	0.148	765.85	0.437
323.15 K, m1 = 0.1001	0.244	768.95	0.445
323.15 K, m1 = 0.2006	0.406	775.15	0.467
323.15 K, m1 = 0.3003	0.529	781.29	0.492
323.15 K, m1 = 0.3995	0.625	787.45	0.519
323.15 K, m1 = 0.5005	0.709	793.64	0.549
323.15 K, m1 = 0.6006	0.782	799.99	0.583
323.15 K, m1 = 0.7007	0.833	806.34	0.617
323.15 K, m1 = 0.8007	0.889	812.57	0.661
323.15 K, m1 = 0.9008	0.927	818.85	0.707
323.15 K, m1 = 1.001	0.976	825.02	0.757
323.15 K, m1 = 1.2	1.017	837.66	0.866
323.15 K, m1 = 1.401	1.042	850.96	1.016
323.15 K, m1 = 1.6	1.045	863.7	1.199
323.15 K, m1 = 1.801	1.032	877.22	1.436
323.15 K, m1 = 2	0.996	890.65	1.748
323.15 K, m1 = 2.203	0.933	904.77	2.13
323.15 K, m1 = 2.403	0.866	918.16	2.685
323.15 K, m1 = 2.603	0.781	931.01	3.381
323.15 K, m1 = 2.803	0.708	944.56	4.325
323.15 K, m1 = 3.001	–	958.45	5.906
323.15 K, m1 = 3.006	0.636	–	–
